A value given as a limit tells only on which side of the number the result lay.

For assay [1], the target named is AktK (Homo sapiens, UniProt P31749). Put plainly: Luciferase-coupled chemiluminescence kinase assay (ATP consumption). In kind it is biochemical. The conditions noted are these: Table 1; class symbols per key; read-out: AKT-1 IC50. In a few lines: (§1)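 Activity is read as ATP depletion: luciferase-luciferin reagent added after a 3 h ambient-temperature kinase reaction, with total ATP use limited to 25-60%. Before ATP addition, 2.5-5 nM kinase and compound were preincubated 30 min in Tris pH 7.5/MgCl2/TX-100/DTT buffer; […].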

The target of assay [2] is p70S6K (Homo sapiens, UniProt P23443). Described as above. In kind it is biochemical. The conditions noted are these: Table 1; class symbols per key. An outline of the steps: as §1
p70S6K, sequence (P23443 whole entry): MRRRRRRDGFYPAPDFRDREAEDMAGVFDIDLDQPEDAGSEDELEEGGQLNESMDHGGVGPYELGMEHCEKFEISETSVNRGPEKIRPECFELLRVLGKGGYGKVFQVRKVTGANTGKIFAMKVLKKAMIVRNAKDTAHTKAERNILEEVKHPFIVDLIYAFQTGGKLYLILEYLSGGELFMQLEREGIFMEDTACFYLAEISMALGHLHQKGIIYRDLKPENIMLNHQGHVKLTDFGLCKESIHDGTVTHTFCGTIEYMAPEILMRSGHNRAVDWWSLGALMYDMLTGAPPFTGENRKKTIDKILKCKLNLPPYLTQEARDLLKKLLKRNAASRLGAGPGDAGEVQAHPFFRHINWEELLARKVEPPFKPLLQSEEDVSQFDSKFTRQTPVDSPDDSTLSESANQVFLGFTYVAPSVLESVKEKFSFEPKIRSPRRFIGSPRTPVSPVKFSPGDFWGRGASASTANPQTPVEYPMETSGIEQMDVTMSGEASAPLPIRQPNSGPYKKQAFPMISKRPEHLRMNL

AktK, sequence (P31749 whole entry): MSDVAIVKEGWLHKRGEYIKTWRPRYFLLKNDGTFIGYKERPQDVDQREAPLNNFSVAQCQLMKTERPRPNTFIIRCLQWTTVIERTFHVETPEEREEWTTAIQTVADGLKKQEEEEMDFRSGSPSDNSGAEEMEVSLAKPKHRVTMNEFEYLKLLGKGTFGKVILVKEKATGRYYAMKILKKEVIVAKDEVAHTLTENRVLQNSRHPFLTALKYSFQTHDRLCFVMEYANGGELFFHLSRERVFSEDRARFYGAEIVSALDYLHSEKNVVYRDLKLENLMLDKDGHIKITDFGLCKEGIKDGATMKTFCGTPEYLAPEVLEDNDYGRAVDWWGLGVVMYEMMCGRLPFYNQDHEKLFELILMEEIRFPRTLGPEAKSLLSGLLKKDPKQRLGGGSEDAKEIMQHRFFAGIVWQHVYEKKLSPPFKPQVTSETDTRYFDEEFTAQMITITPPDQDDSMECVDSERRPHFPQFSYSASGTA

In general, IC50 refers to the point on the concentration scale where inhibition reaches its midpoint. `Cc1c(NCCN2CCCC2)cc(CC[Si](C)(C)C)cc1N1CCN(c2ncnc3[nH]nc(Br)c23)CC1` [Entry 246, 3-[4-(3-bromo-1H-pyrazolo[3,4-d]pyrimidin-4-yl)piperazin-1-yl]-2-methyl-N-(2-pyrrolidin-1-ylethyl)-5-[2-(trimethylsilyl)ethyl]aniline]: the IC50 in assay [1] and in assay [2] was below 100 nM throughout.

Regarding `Cc1c(NCCN2CCCC2)cc(CCc2ccccc2)cc1N1CCN(c2ncnc3[nH]nc(Br)c23)CC1` [Entry 247, 3-[4-(3-bromo-1H-pyrazolo[3,4-d]pyrimidin-4-yl)piperazin-1-yl]-2-methyl-5-(2-phenylethyl)-N-(2-pyrrolidin-1-ylethyl)aniline], the IC50 in assay [1] and in assay [2] was below 100 nM throughout.

With `CCCC(=O)c1cc(NCCN2CCCC2)c(C)c(N2CCN(c3ncnc4[nH]nc(Br)c34)CC2)c1` [Entry 248, 1-{3-[4-(3-bromo-1H-pyrazolo[3,4-d]pyrimidin-4-yl)piperazin-1-yl]-4-methyl-5-[(2-pyrrolidin-1-ylethyl)amino]phenyl}butan-1-one], the IC50 in assay [1] and in assay [2] was below 100 nM each time.

As for `CON(C)C(=O)c1cc(NCCN2CCCC2)c(C)c(N2CCN(c3ncnc4[nH]nc(Br)c34)CC2)c1` [Entry 249, 3-[4-(3-bromo-1H-pyrazolo[3,4-d]pyrimidin-4-yl)piperazin-1-yl]-N,4-dimethyl-N-(methyloxy)-5-[(2-pyrrolidin-1-ylethyl)amino]benzamide], the results for the IC50 in assay [1] and in assay [2] were 100 to 1000 nM and below 100 nM, respectively.

`Cc1c(Br)cc(OCC(F)(CF)CF)cc1N1CCN(c2ncnc3[nH]nc(Br)c23)CC1` [Entry 250, 3-bromo-4-[4-(3-bromo-5-{[2,3-difluoro-2-(fluoromethyl)propyl]oxy}-2-methylphenyl)pipera-zin-1-yl]-1H-pyrazolo[3,4-d]pyrimidine]: the IC50 in assay [1] is 100 to 1000 nM; in assay [2], below 100 nM.

`CCc1n[nH]c2ncnc(N3CCN(c4cc(OCC(F)(CF)CF)cc(Br)c4C)CC3)c12` [Entry 251, 4-[4-(3-bromo-5-{[2,3-difluoro-2-(fluorometh-yl)propyl]oxy}-2-methylphenyl)piperazin-1-yl]-3-ethyl-1H-pyrazolo[3,4-d]pyrimidine]: the IC50 in assay [1] was 100 to 1000 nM; in assay [2], below 100 nM.

Consider `CC(=O)c1cc(NCCN2CCCC2)c(C)c(N2CCN(c3ncnc4[nH]nc(Br)c34)CC2)c1` [Entry 252, 1-{3-[4-(3-bromo-1H-pyrazolo[3,4-d]pyrimidin-4-yl)piperazin-1-yl]-4-methyl-5-[(2-pyrrolidin-1-ylethyl)amino]phenyl}ethanone], for which the IC50 in assay [1] and in assay [2] was below 100 nM each time.

As to `Cc1c(NCCN2CCCC2)cc(OC(F)F)cc1N1CCN(c2ncnc3[nH]nc(Br)c23)CC1` [Entry 253, 3-[4-(3-bromo-1H-pyrazolo[3,4-d]pyrimidin-4-yl)piperazin-1-yl]-5-[(difluoromethyl)oxy]-2-methyl-N-(2-pyrrolidin-1-ylethyl)aniline], the IC50 in assay [1] and in assay [2] was below 100 nM each time.

For `COc1cc(NCCN2CCCC2)c(C)c(N2CCN(c3ncnc4[nH]nc(Br)c34)CC2)c1` [Entry 255, 3-[4-(3-bromo-1H-pyrazolo[3,4-d]pyrimidin-4-yl)piperazin-1-yl]-2-methyl-5-(methyloxy)-N-(2-pyrrolidin-1-ylethyl)aniline], the IC50 in assay [1] is 100 to 1000 nM; in assay [2], below 100 nM.

For `CCc1n[nH]c2ncnc(N3CCN(c4cc(OCC(F)(CF)CF)cc(NCCN5CCCC5)c4C)CC3)c12` [Entry 256, 5-{[2,3-difluoro-2-(fluoromethyl)propyl]oxy}-3-[4-(3-ethyl-1H-pyrazolo[3,4-d]pyrimidin-4-yl)pipera-zin-1-yl]-2-methyl-N-(2-pyrrolidin-1-ylethyl)aniline], the IC50 in assay [1] and in assay [2] was below 100 nM throughout.

Take `CC(C)CCNc1c(F)c(F)nc(N2CCN(c3ncnc4[nH]nc(Br)c34)CC2)c1F` [Entry 257, 2-[4-(3-bromo-1H-pyrazolo[3,4-d]pyrimidin-4-yl)piperazin-1-yl]-3,5,6-trifluoro-N-(3-methylbutyl)pyridin-4-amine]: the IC50 in assay [1] was in the range of 1000 to 10000 nM; in assay [2], 100 to 1000 nM.

On to `Cc1c(NCCN2CCCC2)cc(C(=O)NOCC2CC2)cc1N1CCN(c2ncnc3[nH]nc(Br)c23)CC1` [Entry 258, 3-[4-(3-bromo-1H-pyrazolo[3,4-d]pyrimidin-4-yl)piperazin-1-yl]-N-[(cyclopropylmethyl)oxy]-4-methyl-5-[(2-pyrrolidin-1-ylethyl)amino]benzamide], for which the values for the half-inhibitory concentration (IC50) in assay [1] and in assay [2] were 100 to 1000 nM and below 100 nM, respectively.

For `Cc1nc(-c2cc(NCCN3CCCC3)c(C)c(N3CCN(c4ncnc5[nH]nc(Br)c45)CC3)c2)no1` [Entry 259, 3-[4-(3-bromo-1H-pyrazolo[3,4-d]pyrimidin-4-yl)piperazin-1-yl]-2-methyl-5-(5-methyl-1,2,4-oxadiazol-3-yl)-N-(2-pyrrolidin-1-ylethyl)aniline], the IC50 in assay [1] and in assay [2] was below 100 nM each time.

As for `CCS(=O)(=O)c1cc(NCCN2CCCC2)c(C)c(N2CCN(c3ncnc4[nH]nc(Br)c34)CC2)c1` [Entry 260, 3-[4-(3-bromo-1H-pyrazolo[3,4-d]pyrimidin-4-yl)piperazin-1-yl]-5-(ethylsulfonyl)-2-methyl-N-(2-pyrrolidin-1-ylethyl)aniline], the IC50 in assay [1] and in assay [2] was below 100 nM each time.

As to `Cc1c(NCCN2CCCC2)cc(S(C)(=O)=O)cc1N1CCN(c2ncnc3[nH]nc(Br)c23)CC1` [Entry 261, 3-[4-(3-bromo-1H-pyrazolo[3,4-d]pyrimidin-4-yl)piperazin-1-yl]-2-methyl-5-(methylsulfonyl)-N-(2-pyrrolidin-1-ylethyl)aniline], the IC50 in assay [1] was 100 to 1000 nM; in assay [2], below 100 nM.

Turning to `CCCCC(=O)c1cc(NCCN2CCCC2)c(C)c(N2CCN(c3ncnc4[nH]nc(CC)c34)CC2)c1` [Entry 262, 1-{3-[4-(3-ethyl-1H-pyrazolo[3,4-d]pyrimidin-4-yl)piperazin-1-yl]-4-methyl-5-[(2-pyrrolidin-1-ylethyl)amino]phenyl}pentan-1-one], the IC50 in assay [1] and in assay [2] was below 100 nM in each case.

Turning to `Cc1ccc(OCC(F)(CF)CF)cc1N1CCN(c2ncnc3[nH]nc(Br)c23)CC1` [Entry 263, 3-bromo-4-[4-(5-{[2,3-difluoro-2-(fluorometh-yl)propyl]oxy}-2-methylphenyl)piperazin-1-yl]-1H-pyrazolo[3,4-d]pyrimidine], the IC50 in assay [1] and in assay [2] was below 100 nM throughout.

As to `CC(C)CCNc1c(F)c(NCCN2CCCC2)nc(N2CCN(c3ncnc4[nH]nc(Br)c34)CC2)c1F` [Entry 264, 6-[4-(3-bromo-1H-pyrazolo[3,4-d]pyrimidin-4-yl)piperazin-1-yl]-3,5-difluoro-N~4~-(3-methylbutyl)-N~2~-(2-pyrrolidin-1-ylethyl)pyridine-2,4-diamine], the IC50 in assay [1] was 100 to 1000 nM; in assay [2], below 100 nM.

`Brc1cc(NCCN2CCCC2)cc(N2CCN(c3ncnc4[nH]nc(Br)c34)CC2)c1` [Entry 265, 3-bromo-5-[4-(3-bromo-1H-pyrazolo[3,4-d]pyrimi-din-4-yl)piperazin-1-yl]-N-(2-pyrrolidin-1-ylethyl)aniline]: the IC50 in assay [1] and in assay [2] was below 100 nM in each case.

Source of the values: US8076338B2, “Kinase modulators and methods of use” (Exelixis, Inc., priority 2004, dated 2011).
